Experimental data reported in patent US9675592B2, “Methods and compositions for bacteria infections” (priority 2013, dated 2017).

Columns and labels:
[1] = tested on: test strain 923 pPvra-lux (USA300 MRSA); experiment: Primary screen, relative growth in presence of oxacillin; details: compound 10 μM with oxacillin 2 μg/mL, absorbance 24 h, <0.50 = dead cells = hit
[2] = tested on: vraSR promoter (Pvra-lux reporter in strain 923); experiment: Primary screen, relative luminescence (vraSR expression); details: primary screen, compound 10 μM with oxacillin 2 μg/mL; <0.50 = vraSR repressed = hit

| Structure (SMILES) | RG avg (relative growth) [1] | RL avg (relative luminescence) [2] |
| --- | --- | --- |
| COc1ccccc1-c1nnc(NC(=O)c2cc(-c3ccccc3)nc3ccccc23)o1 [F1374-254] | 0.06 | 0.36 |
| COc1cc(-c2nnc(NC(=O)c3ccc(S(=O)(=O)N4CCCC4)cc3)o2)cc(OC)c1OC [F0559-311] | −0.06 | 0.02 |
| O=C(Nc1nnc(-c2cccs2)o1)c1ccc2c(c1)CCCC2 [F1374-1012] | 0.16 | 0.49 |
| COc1ccccc1-c1nnc(NC(=O)c2cc(-c3cccs3)nc3ccccc23)o1 [F1374-255] | 0.00 | 0.36 |
| COc1ccccc1-c1nnc(NC(=O)c2ccc(Cc3ccccc3)cc2)o1 [F1374-276] | 0.01 | 0.39 |
| O=C(Nc1nnc(-c2ccc(Cl)s2)o1)c1nc2ccccc2s1 [F1374-1083] | 0.02 | 0.49 |
| Cc1ccc(C)c(-c2nnc(NC(=O)c3ccc(S(=O)(=O)N4CC(C)OC(C)C4)cc3)o2)c1 (stereo not drawn) [F2518-334] | 0.00 | −0.04 |
| O=C(Nc1nnc(-c2ccccc2Cl)o1)c1cc(Cl)sc1Cl [F1374-58] | 0.03 | 0.33 |
| COc1cccc2cc(-c3nnc(NC(=O)c4nc5ccccc5s4)o3)oc12 [F2273-37] | 0.09 | 0.09 |
| COc1ccc(-c2nnc(NC(=O)c3ccc(C(=O)c4ccccc4)cc3)o2)cc1 [F1374-443] | 0.05 | 0.39 |
| COc1ccccc1-c1nnc(NC(=O)c2cccc(Br)c2)o1 [F1374-224] | −0.01 | 0.34 |
| COc1cc(OC)cc(-c2nnc(NC(=O)c3ccc(S(=O)(=O)N(CC(C)C)CC(C)C)cc3)o2)c1 [F0559-264] | −0.04 | −0.10 |
| CC1CN(S(=O)(=O)c2ccc(C(=O)Nc3nnc(-c4ccc(Cl)s4)o3)cc2)CC(C)O1 (stereo not drawn) [F0559-377] | −0.08 | −0.09 |
| O=C(Nc1nnc(-c2ccccn2)o1)c1c(F)cccc1F [F0608-895] | 0.03 | −0.06 |
| COc1cccc(-c2nnc(NC(=O)C(c3ccccc3)c3ccccc3)o2)c1 [F1374-379] | 0.47 | 0.34 |
| CC(C)c1ccc(Cc2nnc(NC(=O)c3ccc4ncsc4c3)o2)cc1 [F2368-1143] | −0.01 | −0.09 |
| O=C(Nc1nnc(-c2cc3ccccc3o2)o1)c1nc2ccccc2s1 [F2273-415] | 0.27 | 0.22 |
| O=C(Nc1nnc(-c2cc(Cl)ccc2Cl)o1)c1ccc2c(c1)CCCC2 [F2518-85] | 0.00 | −0.05 |
| O=C(Nc1nnc(-c2ccc3c(c2)CCCC3)o1)c1cc(Cl)sc1Cl [F0608-668] | 0.02 | −0.06 |
| O=C(Nc1nnc(-c2ccc(F)cc2)o1)c1sc2ccccc2c1Cl [F1374-148] | 0.04 | 0.36 |
| COc1cc(OC)cc(-c2nnc(NC(=O)c3ccc(Cl)s3)o2)c1 [F1374-666] | 0.05 | 0.34 |
| O=C(Nc1nnc(-c2ccc3c(c2)CCCC3)o1)c1sc2ccccc2c1Cl [F0608-665] | 0.19 | −0.01 |
| Cc1ccc(C)c(-c2nnc(NC(=O)c3cccc(F)c3)o2)c1 [F2518-301] | −0.01 | −0.10 |
| O=C(Nc1nnc(-c2ccc(F)cc2)o1)c1ccc2c(c1)CCCC2 [F1374-172] | 0.04 | 0.39 |
| O=C(Nc1nnc(-c2ccncc2)o1)c1ccc(Oc2ccccc2)cc1 [F0608-1161] | 0.00 | −0.07 |
| COc1cccc(-c2nnc(NC(=O)c3ccc(S(=O)(=O)N4CCc5ccccc5C4)cc3)o2)c1 [F0559-171] | −0.06 | −0.11 |

| Structure (SMILES) | RG avg (relative growth) [1] | RL avg (relative luminescence) [2] |
| --- | --- | --- |
| O=C(Nc1nnc(-c2cc(Cl)ccc2Cl)o1)c1cc(-c2ccccc2)nc2ccccc12 [F2518-55] | 0.00 | −0.02 |
| COc1ccccc1-c1nnc(NC(=O)c2ccc(S(=O)(=O)N(Cc3ccccc3)C(C)C)cc2)o1 [F0559-148] | 0.02 | −0.04 |
| O=C(Nc1nnc(-c2ccc(Br)s2)o1)c1cc(Cl)ccc1Cl [F5093-46] | −0.01 | −0.07 |
| Cc1ccc(-c2nnc(NC(=O)c3nc4ccccc4s3)o2)c(C)c1 [F2518-183] | 0.00 | −0.04 |
| COc1ccc(-c2nnc(NC(=O)c3ccc(C(C)(C)C)cc3)o2)cc1 [F1374-495] | 0.04 | 0.37 |
| O=C(Nc1nnc(-c2cc3ccccc3o2)o1)c1cccc(Cl)c1 [F2273-385] | 0.28 | 0.16 |
| CCCCN(CC)S(=O)(=O)c1ccc(C(=O)Nc2nnc(-c3ccccc3Cl)o2)cc1 [F0559-36] | −0.08 | −0.16 |
| O=C(Nc1nnc(-c2ccc3c(c2)OCCO3)o1)c1ccc(C(=O)c2ccccc2)cc1 [F0608-19] | −0.02 | −0.12 |
| COc1cc(OC)cc(-c2nnc(NC(=O)c3ccc(S(=O)(=O)N(C)c4ccccc4)cc3)o2)c1 [F0559-246] | −0.03 | −0.08 |
| Cc1ccc(-c2nnc(NC(=O)c3ccc(S(=O)(=O)N4CCCCC4)cc3)o2)cc1C [F2767-26] | 0.03 | −0.05 |
| Cc1ccc(C)c(-c2nnc(NC(=O)c3ccc(Br)s3)o2)c1 [F2518-329] | 0.00 | −0.11 |
| O=C(Nc1nnc(C2COc3ccccc3O2)o1)c1ccc(S(=O)(=O)N2CCc3ccccc3C2)cc1 (stereo not drawn) [F0608-728] | −0.02 | −0.01 |
| Cc1ccc(-c2nnc(NC(=O)c3ccc(F)cc3)o2)cc1C [F2767-12] | 0.02 | 0.01 |
| CCOc1cccc2cc(-c3nnc(NC(=O)c4sc5ccccc5c4Cl)o3)oc12 [F2273-238] | 0.26 | 0.19 |
| Cc1onc(-c2ccccc2Cl)c1C(=O)Nc1nnc(-c2cc(Cl)sc2Cl)o1 [F1374-2706] | 0.02 | 0.25 |
| CC1CC(C)CN(S(=O)(=O)c2ccc(C(=O)Nc3nnc(-c4ccc(F)cc4)o3)cc2)C1 (stereo not drawn) [F0559-106] | −0.07 | −0.07 |
| COc1cccc(-c2nnc(NC(=O)c3cccc(Oc4ccccc4)c3)o2)c1 [F1374-396] | 0.04 | 0.34 |
| CC1CCCCN1S(=O)(=O)c1ccc(C(=O)Nc2nnc(C3COc4ccccc4O3)o2)cc1 (stereo not drawn) [F0608-741] | −0.02 | −0.04 |
| CCOc1cc(-c2nnc(NC(=O)c3ccc4ccccc4c3)o2)cc(OCC)c1OCC [F2517-182] | 0.46 | −0.04 |
| CC1CCCCN1S(=O)(=O)c1ccc(C(=O)Nc2nnc(-c3ccc4c(c3)OCCO4)o2)cc1 (stereo not drawn) [F0608-71] | −0.03 | 0.01 |
| COc1cc(-c2nnc(NC(=O)c3ccc(S(=O)(=O)N(C)c4ccccc4)cc3)o2)cc(OC)c1OC [F0559-307] | −0.04 | −0.08 |
| O=C(Nc1nnc(-c2cc(Cl)ccc2Cl)o1)c1nc2ccccc2s1 [F2518-39] | −0.01 | −0.07 |
| CCN(c1ccccc1)S(=O)(=O)c1ccc(C(=O)Nc2nnc(-c3ccccc3SC)o2)cc1 [F2645-115] | 0.13 | 0.45 |
| COc1cccc(C(=O)Nc2nnc(-c3ccc(C)c(C)c3)o2)c1 [F2767-17] | 0.00 | −0.15 |
| Cc1ccc(C)c(-c2nnc(NC(=O)c3ccc(S(=O)(=O)N4CCCc5ccccc54)cc3)o2)c1 [F2518-342] | 0.00 | −0.02 |
